Source: publication PMC13372822 (The EMBO Journal, 2026)

Tests used:
[1] = test system: OXGR1 mutants (variant named in the endpoint); experiment: Calcium mobilization assay, OXGR1 mutants in HEK293; conditions: for Emax: each ligand normalized to WT (100%);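 on all read-outs here: human OXGR1 variants transiently expressed in HEK293 cells, with intracellular calcium read out by Fluo-4 AM fluorescence, measured 24 h after transfection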
Experimental: (§2) The full-length human SUCR1 and mutations were fused after the HA signal peptide and Flag tag. The constructs were cloned into pcDNA6.0 vector for HEK293 system.
(§3) HEK293 cells were obtained from ATCC (Manassas, VA, USA) and cultured in DMEM supplemented with 10% (v/v) FBS, 100 mg/L penicillin, and 100 mg/L streptomycin in 5% CO2 at 37 °C. For transient transfection, ~2.5 × 10^6 cells were mixed with 2 µg plasmids in 200 µL transfection buffer, and electroporation was carried out with a Scientz-2C electroporation apparatus (Scientz Biotech, Ningbo, China). The experiments were carried out 24 h after transfection. HEK293 cell lines stably expressing Gα16 were constructed by our laboratory.
(§4) For OXGR1, plasmids were transfected into HEK293 (other receptors were transfected into HEK293 stably expressing Gα16) and seeded at a density of 4 × 10^4 per well into 96-well culture plates and incubated for 24 h at 37 °C in 5% CO2. The next day, Cells were incubated with 2 μM/L Fluo-4 AM in HBSS supplemented with 5.6 mM/L D-glucose and 250 μM/L sulfinpyrazone at 37 °C for 45 min. […] Three independent measurements were repeated, i.e., three different transfections, with three technical replicates performed for each experiment. EC50 and Emax values for each curve were calculated by Prism 8.0 software (GraphPad Software).

[2] = biological target: T1, SUCR1 mutants (variant named in the endpoint) (Homo sapiens, UniProt Q9BXA5, F285A/L102F/Y248F); experiment: Calcium mobilization assay, SUCR1 mutants in HEK293 stably expressing Gα16; format: cell-based; conditions: SUCR1 L102F-F285A-Y248F
T1 construct: The full-length human SUCR1 and mutations were fused after the HA signal peptide and Flag tag; HA signal peptide (N); Flag (N); expressed in transfected cells; host or cells: HEK293 stably expressing Gα16 (pcDNA6.0, transient electroporation)
T1 sequence (Q9BXA5 1-334 L102F/Y248F/F285A): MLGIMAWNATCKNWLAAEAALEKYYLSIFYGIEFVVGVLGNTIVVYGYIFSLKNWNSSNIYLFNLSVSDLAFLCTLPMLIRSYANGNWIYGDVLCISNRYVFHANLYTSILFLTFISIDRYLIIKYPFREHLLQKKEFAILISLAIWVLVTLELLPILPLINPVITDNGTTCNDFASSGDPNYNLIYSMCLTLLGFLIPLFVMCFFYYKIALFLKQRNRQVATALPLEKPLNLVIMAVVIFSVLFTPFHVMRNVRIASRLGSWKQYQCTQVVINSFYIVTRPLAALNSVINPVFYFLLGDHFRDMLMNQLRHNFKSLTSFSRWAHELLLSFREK
Experimental: as §2, §3, §4

OXGR1 [3] = biological target: T2, OXGR1 (Homo sapiens, UniProt Q96P68); experiment: cAMP assay, Gs pathway (OXGR1-Gs-cAMP-Assay); format: cell-based; parameters: The full-length human OXGR1 and mutations were fused after the HA signal peptide and Flag tag; HA signal peptide (N); Flag (N); expressed in transfected cells; host or cells: HEK293 (pcDNA3.0, transient electroporation); conditions: OXGR1 WT
Experimental: (§1) In brief, cells expressing OXGR1 were seeded in a plate at a density of 1 × 10^6 cells/well and cultured overnight. After 24 h culture, cells were harvested and re-suspended in DMEM containing 500 µM IBMX at a density of 2 × 10^5 cells/mL. Then, cells were plated onto 384-well assay plates at a density of 1000 cells/5 µL/well. Another 5 µL buffer containing compounds at various concentrations was added to the cells, and the incubation lasted for 30 min at 37 °C. Intracellular cAMP level was tested by a LANCE Ultra cAMP kit (PerkinElmer, TRF0264) and EnVision multiplate reader according to the manufacturer’s instructions.

OXGR1 [4] = biological target: T2, OXGR1; experiment: cAMP assay, Gi pathway (OXGR1-Gi-cAMP Assay); format: cell-based; parameters: The full-length human OXGR1 and mutations were fused after the HA signal peptide and Flag tag; HA signal peptide (N); Flag (N); expressed in transfected cells; host or cells: HEK293 (pcDNA3.0, transient electroporation); conditions: OXGR1 WT
Experimental: as §1

OXGR1 [5] = biological target: T3, OXGR1 (Homo sapiens, UniProt Q96P68, L299P); experiment: Immunofluorescence assay of OXGR1 internalization; format: cell-based; conditions: 300 μM AKG, 0 or 30 min at 37°C
T3 construct: The full-length human OXGR1 and mutations were fused after the HA signal peptide and Flag tag; HA; expressed in transfected cells; host or cells: HEK293, transient
Experimental: Figure. R2 | Effect of L2997x50P mutant on activation and internalization of OXGR1. […]
responses. Responses were normalized to 100% for wild-type. Data are mean ± S.E.M. from three independent experiments (n = 3), with three technical replicates performed for each […]
experiment. […] HEK293 cells transiently […]
transfected with HA-tagged OXGR1 -WT or L299 7x50P mutant, were incubated with 300 μM […]
OXGR1 were stained with anti-HA (green). Cell nuclei were (1 picture or pasted object on this page, not shown here)

O=C(O)CCC(=O)O [SUC, succinate]
EC50 ([1]; OXGR1 D185A): > 1000 µM
Emax ([1]; OXGR1 D185A): -4.4± 9 WT%
EC50 ([1]; OXGR1 E97A): 1580 ± 260 µM
Emax ([1]; OXGR1 E97A): 74± 6 WT%
EC50 ([1]; OXGR1 F113A): > 1000 µM
Emax ([1]; OXGR1 F113A): -0.39± 2 WT%
EC50 ([1]; OXGR1 F113W): 760 ± 210 µM
increase in potency by F113W mutation ([1]; OXGR1 F113W versus WT): no significant change
Emax ([1]; OXGR1 F113W): 82± 5 WT%
EC50 ([1]; OXGR1 F257A): > 10000 µM
Emax ([1]; OXGR1 F257A): 29± 1 WT%
EC50 ([1]; OXGR1 F257Y): 81 ± 4 µM
Emax ([1]; OXGR1 F257Y): 76± 2 WT%
EC50 ([1]; OXGR1 H114A): 3600 ± 600 µM
Emax ([1]; OXGR1 H114A): 84± 4 WT%
EC50 ([1]; OXGR1 H114L): > 1000 µM
Emax ([1]; OXGR1 H114L): 1.9± 3 WT%
EC50 ([1]; OXGR1 H281A): 4500 ± 1300 µM
Emax ([1]; OXGR1 H281A): 87±10 WT%
EC50 ([1]; OXGR1 I172A): > 1000 µM
Emax ([1]; OXGR1 I172A): 0.013± 2 WT%
EC50 ([1]; OXGR1 L36A): > 1000 µM
Emax ([1]; OXGR1 L36A): 6.1± 0.2 WT%
EC50 ([1]; OXGR1 L89A): > 1000 µM
Emax ([1]; OXGR1 L89A): 2.8± 0.9 WT%
EC50 ([1]; OXGR1 L186A): > 1000 µM
Emax ([1]; OXGR1 L186A): -0.43± 1 WT%
EC50 ([1]; OXGR1 L186F): 770 ± 60 µM
Emax ([1]; OXGR1 L186F): 75± 5 WT%
EC50 ([1]; OXGR1 L299P): > 1000 µM
Emax ([1]; OXGR1 L299P): 10.5±3 WT%
activation of OXGR1 L299P ([1]; OXGR1 L299P, in words): abolished
EC50 ([1]; OXGR1 M168I): 1100 ± 60 µM
Emax ([1]; OXGR1 M168I): 88± 2 WT%
EC50 ([1]; OXGR1 N28A): 300 ± 50 µM
Emax ([1]; OXGR1 N28A): 94± 0.8 WT%
EC50 ([1]; OXGR1 R110A): > 1000 µM
Emax ([1]; OXGR1 R110A): 7.0± 1 WT%
EC50 ([1]; OXGR1 R110E): > 1000 µM
Emax ([1]; OXGR1 R110E): 8.9± 5 WT%
EC50 ([1]; OXGR1 R110Q): > 1000 µM
Emax ([1]; OXGR1 R110Q): 1.7± 2 WT%
EC50 ([1]; OXGR1 R177A): 370 ± 70 µM
Emax ([1]; OXGR1 R177A): 89± 6 WT%
EC50 ([1]; OXGR1 R264A): > 10000 µM
Emax ([1]; OXGR1 R264A): 57± 5 WT%
EC50 ([1]; OXGR1 R268A): > 1000 µM
Emax ([1]; OXGR1 R268A): 6.3± 4 WT%
EC50 ([1]; OXGR1 R288A): > 1000 µM
EC50 ([1]; OXGR1 R288E): > 1000 µM
Emax ([1]; OXGR1 R288E): -16±0.6 WT%
EC50 ([1]; OXGR1 R288Q): > 1000 µM
EC50 ([1]; OXGR1 Y40A): > 1000 µM
Emax ([1]; OXGR1 Y40A): -1.5± 2 WT%
EC50 ([1]; OXGR1 Y93A): > 1000 µM
Emax ([1]; OXGR1 Y93A): 5.5± 3 WT%
EC50 ([1]; OXGR1 Y284A): > 1000 µM
Emax ([1]; OXGR1 Y284A): 4.1±2 WT%
EC50 [2]: 2200 ± 220 µM

O=C(O)CCC(=O)C(=O)O [AKG, α-ketoglutarate]
activation of Gs signaling (OXGR1 [3]): no detectable activation
activation of Gi signaling (OXGR1 [4]): no detectable activation
internalization of OXGR1 L299P mutant (OXGR1 [5]): remains at the plasma membrane
